Laboratory results reported in the NIST ThermoML archive (doi:10.1016/j.fluid.2013.11.031).

Details: Liquid, Vibrating tube method

CCCO [propan-1-ol]
mass density [kg/m3]
Details	293.15 K	313.15 K	333.15 K	353.15 K
100 kPa	803.8	787.1	769.9	752
10000 kPa	811.3	795.5	780	762.5
20000 kPa	818.1	803	788.3	771.8
30000 kPa	824.4	810	795.7	780.2
40000 kPa	830	816.4	802.5	787.9
50000 kPa	835.6	822.3	809	795
60000 kPa	841	827.9	815	801.4
70000 kPa	845.9	833.2	820.6	807.7
80000 kPa	850.7	838.3	826.2	813.4
90000 kPa	855.2	843	831.2	818.7
100000 kPa	859.6	847.9	836.3	823.8
110000 kPa	863.7	852.3	840.9	828.8
120000 kPa	867.8	856.6	845.3	833.5
130000 kPa	871.6	860.7	849.6	837.9
140000 kPa	875.3	864.6	853.6	842.1
